# Assay results published in ChEMBL document CHEMBL5143597, “Design and synthesis of novel spirocyclic carboxylic acids as potent and orally bioavailable DGAT1 inhibitors and their biological evaluation” (Bioorg Med Chem Lett, 2022).
# The source made the active and inactive calls. No cut-off for these calls is given here.
# Experiments:
# [1] = target: T1, Diacylglycerol O-acyltransferase 1 (Homo sapiens, UniProt O75907); assay: Inhibition of recombinant human DGAT1 expressed in Sf9 cell membrane assessed as inhibition of triglyceride synthesis incubated for 1 hrs by LC-MS-based mass spectrophotometric analysis; assay type: cell membranes
# T1 sequence (O75907 whole entry): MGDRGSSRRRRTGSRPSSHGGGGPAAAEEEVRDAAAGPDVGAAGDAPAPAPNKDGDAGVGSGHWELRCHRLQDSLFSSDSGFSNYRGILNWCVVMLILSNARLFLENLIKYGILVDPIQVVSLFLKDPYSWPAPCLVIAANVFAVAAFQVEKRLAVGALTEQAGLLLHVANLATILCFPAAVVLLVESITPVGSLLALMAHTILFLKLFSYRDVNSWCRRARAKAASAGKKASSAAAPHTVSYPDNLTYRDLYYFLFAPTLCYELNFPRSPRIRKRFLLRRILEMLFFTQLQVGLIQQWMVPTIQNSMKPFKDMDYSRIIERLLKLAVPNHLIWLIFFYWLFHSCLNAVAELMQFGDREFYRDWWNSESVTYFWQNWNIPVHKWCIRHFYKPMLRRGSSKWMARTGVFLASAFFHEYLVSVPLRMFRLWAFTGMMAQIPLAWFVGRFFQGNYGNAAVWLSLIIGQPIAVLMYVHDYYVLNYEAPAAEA
# [2] = target: T1, Diacylglycerol O-acyltransferase 1; assay: Inhibition of human DGAT1 in serum starved HEK293 cells assessed as inhibition of triglyceride synthesis incubated for 20 mins followed by 13C-addition of 13C-oleic acid pre-complexed with BSA for 120 mins by LC-MS-based mass spectrophotometric analysis; assay type: cell-based
# Mus musculus [3] = assay: In vivo inhibition of DGAT1 in C57BL/6 mouse model of acute lipid challenge assessed as reduction in AUC plasma triglyceride level at 3 to 10 mg/kg, po as corn oil bolus by Oral lipid tolerance test relative to control; assay type: functional, organism-based; settings: dose 3-10 mg/kg
# Mus musculus [4] = assay: In vivo inhibition of DGAT1 in C57BL/6 mouse model of acute lipid challenge assessed as reduction in chylomicron derived plasma triglyceride excursion at 3 to 10 mg/kg, po as corn oil bolus by Oral lipid tolerance test relative to control; assay type: functional, organism-based; settings: dose 3-10 mg/kg
# [5] = Metabolic stability in mouse liver microsomes assessed as parent compound remaining at 1 uM and measured at 30 mins by LC-MS/MS analysis; assay type: ADME, Microsome; settings: read-out: Stability
# [6] = Drug distribution in C57BL/6 mouse skeletal muscle 10 mg/kg, po and measured at 2 hrs post dose by LC-MS/MS analysis; assay type: ADME, organism-based, Skeletal muscle tissue; settings: read-out: Ct
# [7] = Drug distribution in C57BL/6 mouse brain 10 mg/kg, po and measured at 1 hrs post dose by LC-MS/MS analysis; assay type: ADME, organism-based; settings: read-out: Ct
# [8] = Half life in C57BL/6 mouse at 3 mg/kg, iv or 10 mg/kg, po and measured up to 24 hrs by LC-MS/MS analysis; assay type: ADME, organism-based; settings: in vivo
# [9] = Drug distribution in C57BL/6 mouse plasma 10 mg/kg, po and measured at 1 hrs post dose by LC-MS/MS analysis; assay type: ADME, organism-based
# [10] = AUC in Wistar rat at 3 mg/kg, iv or 10 mg/kg, po and measured up to 24 hrs by LC-MS/MS analysis; assay type: ADME, organism-based; design: dose 3 mg/kg, time < 24 hrs, route iv; settings: in vivo
# [11] = Drug distribution in C57BL/6 mouse liver 10 mg/kg, po and measured at 1 hrs post dose by LC-MS/MS analysis; assay type: ADME, organism-based; settings: read-out: Ct
# [12] = Drug distribution in C57BL/6 mouse adipose tissue 10 mg/kg, po and measured at 2 hrs post dose by LC-MS/MS analysis; assay type: ADME, organism-based; settings: read-out: Ct
# [13] = Metabolic stability in human liver microsomes assessed as parent compound remaining at 1 uM and measured at 30 mins by LC-MS/MS analysis; assay type: ADME, Microsome; settings: read-out: Stability
# [14] = Oral bioavailability in Wistar rat at 10 mg/kg or 3 mg/kg, iv and measured up to 24 hrs by LC-MS/MS analysis; assay type: ADME, organism-based; settings: in vivo
# [15] = Drug distribution in C57BL/6 mouse skeletal muscle 10 mg/kg, po and measured at 1 hrs post dose by LC-MS/MS analysis; assay type: ADME, organism-based, Skeletal muscle tissue; settings: read-out: Ct
# [16] = AUC in C57BL/6 mouse at 3 mg/kg, iv or 10 mg/kg, po and measured up to 24 hrs by LC-MS/MS analysis; assay type: ADME, organism-based; design: time < 24 hrs, dose 3 mg/kg, route iv; settings: in vivo
# [17] = Cmax in C57BL/6 mouse at 3 mg/kg, iv or 10 mg/kg, po and measured up to 24 hrs by LC-MS/MS analysis; assay type: ADME, organism-based; design: dose 3 mg/kg, time < 24 hrs, route iv; settings: in vivo
# [18] = Volume of distribution at steady state in Wistar rat at 3 mg/kg, iv or 10 mg/kg, po and measured up to 24 hrs by LC-MS/MS analysis; assay type: ADME, organism-based; settings: in vivo, read-out: Vdss
# [19] = Drug distribution in C57BL/6 mouse liver 10 mg/kg, po and measured at 2 hrs post dose by LC-MS/MS analysis; assay type: ADME, organism-based; settings: read-out: Ct
# [20] = Drug distribution in C57BL/6 mouse adipose tissue 10 mg/kg, po and measured at 1 hrs post dose by LC-MS/MS analysis; assay type: ADME, organism-based; settings: read-out: Ct
# [21] = Metabolic stability in rat liver microsomes assessed as parent compound remaining at 1 uM and measured at 30 mins by LC-MS/MS analysis; assay type: ADME, Microsome; settings: read-out: Stability
# [22] = Drug distribution in C57BL/6 mouse plasma 10 mg/kg, po and measured at 8 hrs post dose by LC-MS/MS analysis; assay type: ADME, organism-based
# CYP2D6 = CYP2D6 (Homo sapiens, UniProt P10635); assay: Inhibition of recombinant human CYP2D6 at 25 uM by fluorescence plate reader analysis; assay type: ADME
# [23] = Apparent permeability across apical to basolateral side in MDCK cells at 2.5 uM for 90 mins; assay type: ADME, cell-based, Canis lupus familiaris; settings: dog
# [24] = Oral bioavailability in C57BL/6 mouse 10 mg/kg or 3 mg/kg, iv and measured up to 24 hrs by LC-MS/MS analysis; assay type: ADME, organism-based; settings: in vivo
# [25] = Half life in Wistar rat at 3 mg/kg, iv or 10 mg/kg, po and measured up to 24 hrs by LC-MS/MS analysis; assay type: ADME, organism-based; settings: in vivo
# [26] = Tmax in C57BL/6 mouse at 3 mg/kg, iv or 10 mg/kg, po and measured up to 24 hrs by LC-MS/MS analysis; assay type: ADME, organism-based; settings: in vivo
# [27] = Cmax in Wistar rat at 3 mg/kg, iv or 10 mg/kg, po and measured up to 24 hrs by LC-MS/MS analysis; assay type: ADME, organism-based; design: dose 3 mg/kg, time < 24 hrs, route iv; settings: in vivo
# [28] = Drug distribution in C57BL/6 mouse liver 10 mg/kg, po and measured at 8 hrs post dose by LC-MS/MS analysis; assay type: ADME, organism-based; settings: read-out: Ct
# [29] = Plasma protein binding in rat; assay type: ADME, cell-free; settings: read-out: PPB
# [30] = Clearance in Wistar rat at 3 mg/kg, iv or 10 mg/kg, po and measured up to 24 hrs by LC-MS/MS analysis; assay type: ADME, organism-based; settings: in vivo
# [31] = Tmax in Wistar rat at 3 mg/kg, iv or 10 mg/kg, po and measured up to 24 hrs by LC-MS/MS analysis; assay type: ADME, organism-based; settings: in vivo
# [32] = Volume of distribution at steady state in C57BL/6 mouse at 3 mg/kg, iv or 10 mg/kg, po and measured up to 24 hrs by LC-MS/MS analysis; assay type: ADME, organism-based; settings: in vivo, read-out: Vdss
# [33] = Clearance in C57BL/6 mouse at 3 mg/kg, iv or 10 mg/kg, po and measured up to 24 hrs by LC-MS/MS analysis; assay type: ADME, organism-based; settings: in vivo
# hERG (KCNH2) = hERG (KCNH2) (Homo sapiens, UniProt Q12809); assay: Displacement of [3H]astemizole from human ERG expressed in HEK293 cell membrane at 30 uM for 2 hrs by Radiometric displacement assay; assay type: toxicity; settings: HEK293 cell membranes that express hERG, probe [3H]astemizole
# [34] = Drug distribution in C57BL/6 mouse skeletal muscle 10 mg/kg, po and measured at 8 hrs post dose by LC-MS/MS analysis; assay type: ADME, organism-based, Skeletal muscle tissue; settings: read-out: Ct
# [35] = Plasma protein binding in mouse; assay type: ADME, cell-free; settings: read-out: PPB (converted)
# [36] = Drug distribution in C57BL/6 mouse adipose tissue 10 mg/kg, po and measured at 8 hrs post dose by LC-MS/MS analysis; assay type: ADME, organism-based; settings: read-out: Ct
# [37] = Drug distribution in C57BL/6 mouse plasma 10 mg/kg, po and measured at 2 hrs post dose by LC-MS/MS analysis; assay type: ADME, organism-based
# [38] = Inhibition of human […] in HepG2 cells assessed as inhibition of triglyceride synthesis at 100 nM incubated for 1 hrs followed by 13C-addition of 13C-oleic acid pre-complexed with fatty acid free BSA for 6 hrs by LC/MS/MS analysis; settings: time 7.0 hrs
# [39] = Inhibition of human […] in HepG2 cells assessed as inhibition of triglyceride synthesis at 1 uM incubated for 1 hrs followed by 13C-addition of 13C-oleic acid pre-complexed with fatty acid free BSA for 6 hrs by LC/MS/MS analysis; settings: time 7.0 hrs
# [40] = Inhibition of human […] in HepG2 cells assessed as inhibition of triglyceride synthesis at 300 nM incubated for 1 hrs followed by 13C-addition of 13C-oleic acid pre-complexed with fatty acid free BSA for 6 hrs by LC/MS/MS analysis; settings: time 7.0 hrs
# [41] = target: 2-acylglycerol O-acyltransferase 2 (Homo sapiens) (UniProt Q3SYC2); assay: Inhibition of recombinant human MGAT2 expressed in Sf9 cell membrane assessed as inhibition of triglyceride synthesis at 10 uM for 1 hr by LC-MS-based mass spectrophotometric analysis
# Chain of 2-acylglycerol O-acyltransferase 2 (Homo sapiens) (Q3SYC2 whole entry, looked up): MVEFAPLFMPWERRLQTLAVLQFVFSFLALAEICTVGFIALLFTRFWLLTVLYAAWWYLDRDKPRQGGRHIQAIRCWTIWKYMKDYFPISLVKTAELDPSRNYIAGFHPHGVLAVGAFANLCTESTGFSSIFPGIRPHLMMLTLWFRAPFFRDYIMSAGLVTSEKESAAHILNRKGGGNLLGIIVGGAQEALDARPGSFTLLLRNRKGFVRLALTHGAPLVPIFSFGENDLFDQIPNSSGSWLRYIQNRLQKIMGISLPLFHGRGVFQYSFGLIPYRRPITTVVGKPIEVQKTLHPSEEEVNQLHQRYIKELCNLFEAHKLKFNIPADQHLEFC
# Chain of CYP2D6 (P10635 whole entry): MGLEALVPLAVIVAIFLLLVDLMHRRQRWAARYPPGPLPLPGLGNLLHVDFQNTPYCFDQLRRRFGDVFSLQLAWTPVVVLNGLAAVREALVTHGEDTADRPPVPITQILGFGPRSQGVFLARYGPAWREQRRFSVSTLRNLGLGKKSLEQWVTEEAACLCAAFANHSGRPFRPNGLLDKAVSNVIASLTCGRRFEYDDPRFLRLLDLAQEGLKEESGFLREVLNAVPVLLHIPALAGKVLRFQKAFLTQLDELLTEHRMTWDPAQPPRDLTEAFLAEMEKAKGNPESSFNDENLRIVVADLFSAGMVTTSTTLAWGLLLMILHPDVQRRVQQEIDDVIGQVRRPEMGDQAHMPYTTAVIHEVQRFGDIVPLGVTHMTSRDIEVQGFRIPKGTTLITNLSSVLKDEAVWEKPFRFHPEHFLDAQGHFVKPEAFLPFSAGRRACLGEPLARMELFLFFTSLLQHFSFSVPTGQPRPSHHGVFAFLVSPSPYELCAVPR
# Chain of hERG (KCNH2) (Q12809 whole entry): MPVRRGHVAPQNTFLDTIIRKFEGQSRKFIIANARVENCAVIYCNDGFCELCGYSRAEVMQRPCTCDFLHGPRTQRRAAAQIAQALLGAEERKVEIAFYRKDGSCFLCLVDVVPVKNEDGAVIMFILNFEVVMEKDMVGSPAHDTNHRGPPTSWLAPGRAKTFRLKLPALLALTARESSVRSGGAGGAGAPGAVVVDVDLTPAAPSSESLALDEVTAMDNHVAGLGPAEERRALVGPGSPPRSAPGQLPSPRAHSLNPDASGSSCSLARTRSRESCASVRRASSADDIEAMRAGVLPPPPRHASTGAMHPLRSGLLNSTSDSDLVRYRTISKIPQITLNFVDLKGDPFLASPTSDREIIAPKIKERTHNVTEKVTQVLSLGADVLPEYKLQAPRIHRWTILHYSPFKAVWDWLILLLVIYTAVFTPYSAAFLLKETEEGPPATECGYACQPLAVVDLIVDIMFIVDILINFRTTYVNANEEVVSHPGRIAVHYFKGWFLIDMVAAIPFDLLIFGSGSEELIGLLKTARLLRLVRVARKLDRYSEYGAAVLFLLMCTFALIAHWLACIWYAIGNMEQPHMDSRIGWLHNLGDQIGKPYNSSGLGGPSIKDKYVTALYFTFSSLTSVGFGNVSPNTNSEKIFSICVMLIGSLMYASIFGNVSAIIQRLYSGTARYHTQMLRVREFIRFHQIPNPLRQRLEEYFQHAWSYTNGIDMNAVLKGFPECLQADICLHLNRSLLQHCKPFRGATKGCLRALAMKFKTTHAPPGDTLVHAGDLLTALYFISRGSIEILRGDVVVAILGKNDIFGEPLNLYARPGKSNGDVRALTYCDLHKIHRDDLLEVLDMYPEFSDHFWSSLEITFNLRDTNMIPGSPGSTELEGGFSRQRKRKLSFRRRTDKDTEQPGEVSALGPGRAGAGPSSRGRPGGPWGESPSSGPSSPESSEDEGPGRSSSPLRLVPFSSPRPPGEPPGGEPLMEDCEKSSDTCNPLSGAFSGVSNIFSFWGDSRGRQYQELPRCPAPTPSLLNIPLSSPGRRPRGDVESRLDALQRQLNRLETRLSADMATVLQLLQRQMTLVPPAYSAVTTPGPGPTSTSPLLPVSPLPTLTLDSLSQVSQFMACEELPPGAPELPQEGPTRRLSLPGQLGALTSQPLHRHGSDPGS
structure (smiles),measurement,setting,value
O=C(O)CC1CCC2(CC1)CCC(c1ccc(NC(=O)c3nnc(Nc4ccc(F)c(F)c4)o3)cc1)CC2 (stereo in doubt; 8a),IC50,[1],64 nM
same,IC50,[2],24 nM
O=C(Nc1ccc(N2CCC3(CC2)CC(C(=O)O)C3)nc1)c1nnc(Nc2ccc(F)c(F)c2)o1,inhibition,Mus musculus [3],Active
same,inhibition,Mus musculus [4],Active
O=C(Nc1ccc(C2CCC3(CC2)CC(C(=O)O)C3)cc1)c1nnc(Nc2ccc(F)c(F)c2)o1 (stereo not drawn) [listing 1 of 2 here],"remaining at 0.5 h, 1 µM",[5],96%
same,concentration at 2 h,[6],60 nM
same,concentration at 1 h,[7],20 nM
same,half-life,[8],3.6 h
same,concentration at 1 h,[9],5900 nM
same,AUC at 24 h,[10],17 µM·h
same,concentration at 1 h,[11],142000 nM
same,concentration at 2 h,[12],350 nM
same,"remaining at 0.5 h, 1 µM",[13],95%
same,bioavailability,[14],100%
same,concentration at 1 h,[15],160 nM
same,AUC at 24 h,[16],2.8 µM·h
same,Cmax,[17],1400 nM
same,Vd,[18],0.53 L/kg
same,concentration at 2 h,[19],71600 nM
same,concentration at 1 h,[20],470 nM
same,"remaining at 0.5 h, 1 µM",[21],100%
same,concentration at 8 h,[22],360 nM
same,inhibition at 25 µM,CYP2D6,10%
same,"Papp A→B at 1.5 h, 2.5 µM",[23],4.9 ×10⁻⁶ cm/s
same,bioavailability,[24],30%
same,half-life,[25],3.6 h
same,Tmax,[26],0.25 h
same,Cmax,[27],14000 nM
same,concentration at 8 h,[28],17800 nM
same,fraction unbound,[29],0.01
same,clearance,[30],6.2 mL/min/kg
same,Tmax,[31],1 h
same,Vd,[32],4.4 L/kg
same,clearance,[33],34 mL/min/kg
same,"inhibition at 2 h, 30 µM",hERG (KCNH2),16%
same,concentration at 8 h,[34],30 nM
same,fraction unbound,[35],0.02
same,concentration at 8 h,[36],130 nM
same,concentration at 2 h,[37],1660 nM
O=C(Nc1ccc(C2CCC3(CC2)CC(C(=O)O)C3)cc1)c1nnc(Nc2ccc(F)c(F)c2)o1 (stereo not drawn) [listing 2 of 2 here],inhibition,[38],88%
same,inhibition,[39],96%
same,inhibition,[40],94%
same,inhibition,[41],16%
